Experiments:
[1] = supported liquid membrane transport into aqueous reextraction solution; type: physicochemical
Source text: These examples use the second embodiment of the process according to the invention for extracting europium, neptunium, plutonium and americium from aqueous solutions having the same compositions as those used in examples 7 to 16. These examples use the device shown in the attached drawing.
This device comprises an enclosure 1 subdivided into two compartents 3 and 5 by a supported liquid membrane 7, constituted by a microporous polypropylene membrane marketed under the name CELGARD 2500 and having the following characteristics:
membrane thickness: 0.025 mm.
The pores of this membrane are filled with an organic phase constituted by nitrophenylhexyl ether incorporating 0.001 or 0.0001M of calixarene.
Compartment 3 contains 50 ml of aqueous solution (NaNO3 :4 mole/l, HNO3 : 1mole/l with Eu, Np, Pu, Am); and compartment 5 contains 50ml of an aqueous reextraction solution constituted by an aqueous solution with 1 mole/l of methylene diphosphonic acid.
The two solutions are stirred and the initial activity of the solution of compartment 3 is determined, followed by the activity of the aqueous reextraction solution of compartment 5 by liquid α spectrometry and the operation is continued for one day. From it is deduced the percentage of neptunium, plutonium, americium and europium recovered in the aqueous reextraction solution after 6 and 24 h.
The calixarenes used, the permeability (in cm h^-1) of the membrane to Np and Pu, as well as the %, at the end of 6 and 24 h,of Eu, Am, Np and Pu recovered are given in table 3.

[2] = liquid-liquid extraction from aqueous nitric solution, distribution coefficient D; type: physicochemical; conditions: for D(distribution coefficient) 152-Eu: pH ≈0, 1 hour contacting
Protocol: In these examples, an evaluation takes place of the effectiveness of the calixarenes of table 1 for extracting plutonium, neptunium and americium, as well as europium (simulating all the trivalent lanthanides) of an aqueous solution containing one of these elements. The composition of the aqueous solution is as follows:
[…] Contacting takes place in a 20 ml polypropylene tube, which undergoes stirring. After 1 hour of contacting, the two phases are allowed to settle and the activity of each phase is counted by liquid scintillation or α and γ spectrometries.
The distribution coefficient D is then determined and this corresponds to the ratio of the activity of actinide in the organic phase to the activity of actinide in the aqueous phase.

[3] = 6 h, supported liquid membrane, 0.001 or 0.0001M calixarene (CMPO 10^-2 M)
[4] = 24 h, supported liquid membrane, 0.001 or 0.0001M calixarene (CMPO 10^-2 M)
[5] = CELGARD 2500 membrane, nitrophenylhexyl ether with 0.001 or 0.0001M calixarene (CMPO 10^-2 M), reextraction 1 mole/l methylene diphosphonic acid
[6] = calixarene 0.001M in nitrophenyloctylether, aqueous HNO3, NaNO3 4 mole/l
[7] = calixarene 0.001M in nitrophenyloctylether, aqueous HNO3, NaNO3 4 mole/l, 1 hour, * = precipitation
[8] = calixarene 0.0005M, aqueous HNO3, NaNO3 4 mole/l, 1 hour
[9] = calixarene 0.0001M in nitrophenyloctylether, aqueous HNO3, NaNO3 4 mole/l, 1 hour, * = precipitation
[10] = CMPO 0.01M in nitrophenyl hexyl ether, comparative

Row | Compound | Percentage transported in 6 h. 237 Np [1, 3] | Percentage transported in 6 h. 239 Pu [1, 3] | Percentage transported in 6 h. 241 Am [1, 3] | Percentage of 239Pu transported in 24 h [1, 4] | Percentage transported in 24 h. 237 Np [1, 4] | Percentage transported in 24 h. 241 Am [1, 4] | Permeability (cm/h) 237 Np [1, 5] | Permeability (cm/h) 239 Pu [1, 5] | Permeability (cm/h) 241 Am [1, 5] | D(distribution coefficient) 152-Eu [2, 6] | D(distribution coefficient) 237-Np [2, 7] | D(distribution coefficient) 239-Pu [2, 7] | D(distribution coefficient) 241-Am [2, 7] | further results
1 | CCCCCCCCOc1c2cc(NC(=O)CP(=O)(c3ccccc3)c3ccccc3)cc1Cc1cc(NC(=O)CP(=O)(c3ccccc3)c3ccccc3)cc(c1OC)Cc1cc(NC(=O)CP(=O)(c3ccccc3)c3ccccc3)cc(c1OCCCCCCCC)Cc1cc(NC(=O)CP(=O)(c3ccccc3)c3ccccc3)cc(c1OC)C2 [Compound 9] | 52.4% | 84.1% | 91.3% | 86% | 75.2% | 100% | 1.6 cm/h | 4.2 cm/h | 2.9 cm/h | > 100 | 2 | 110 | 280 | –
2 | CCCCCCCCCCCCCCCCCCOc1c2cc(NC(=O)CP(=O)(c3ccccc3)c3ccccc3)cc1Cc1cc(NC(=O)CP(=O)(c3ccccc3)c3ccccc3)cc(c1OC)Cc1cc(NC(=O)CP(=O)(c3ccccc3)c3ccccc3)cc(c1OCCCCCCCCCCCCCCCCCC)Cc1cc(NC(=O)CP(=O)(c3ccccc3)c3ccccc3)cc(c1OC)C2 [Compound 7] | 42.7% | 99.7% | 92.6% | 100% | 59.4% | 99.3% | 1.3 cm/h | 7 cm/h | 3.2 cm/h | > 100 | 3 | 170 | 250 | –
3 | CCCCC(CC)COc1c2cc(NC(=O)CP(=O)(c3ccccc3)c3ccccc3)cc1Cc1cc(NC(=O)CP(=O)(c3ccccc3)c3ccccc3)cc(c1OCC(CC)CCCC)Cc1cc(NC(=O)CP(=O)(c3ccccc3)c3ccccc3)cc(c1OCC(CC)CCCC)Cc1cc(NC(=O)CP(=O)(c3ccccc3)c3ccccc3)cc(c1OCC(CC)CCCC)C2 (centres unmarked) [Compound 10] | 19.8% | 53.5% | 27.8% | 76.6% | 30.4% | 62.4% | 0.6 cm/h | 2 cm/h | 0.5 cm/h | – | – | – | – | D(distribution coefficient) 152-Eu ([2]; calixarene 0.0005M, aqueous HNO3, NaNO3 4 mole/l): 1.5; D(distribution coefficient) 237-Np [2, 8]: 2; D(distribution coefficient) 239-Pu [2, 8]: 20; D(distribution coefficient) 241-Am [2, 8]: 4.5
4 | CCCCCCCCCCOc1c2cc(NC(=O)CP(=O)(c3ccccc3)c3ccccc3)cc1Cc1cc(NC(=O)CP(=O)(c3ccccc3)c3ccccc3)cc(c1OC)Cc1cc(NC(=O)CP(=O)(c3ccccc3)c3ccccc3)cc(c1OCCCCCCCCCC)Cc1cc(NC(=O)CP(=O)(c3ccccc3)c3ccccc3)cc(c1OC)C2 [Compound 6, 25, 27 didecyloxy-26,28-dimethoxy-5,11, 17,23-(diphenylphosphinoxido-acetamido) calix[4]arene] | 49.4% | 97.1% | 94.2% | 100% | 68.3% | 94.9% | 1.6 cm/h | 6.4 cm/h | 2.9 cm/h | > 100 | 3 | 130 | 240 | –
5 | CCCCCOc1c2cc(NC(=O)CP(=O)(c3ccccc3)c3ccccc3)cc1Cc1cc(NC(=O)CP(=O)(c3ccccc3)c3ccccc3)cc(c1OCCCCC)Cc1cc(NC(=O)CP(=O)(c3ccccc3)c3ccccc3)cc(c1OCCCCC)Cc1cc(NC(=O)CP(=O)(c3ccccc3)c3ccccc3)cc(c1OCCCCC)C2 [Compound 8] | 8.5% | 79.6% | 99% | 80% | 14.5% | 100% | < 0.2 cm/h | 3.6 cm/h | 3.4 cm/h | > 100 | 2 | 100 | 250 | –
6 | CCCCCCCCCCCCCCCCCCOc1c2cc(NC(=O)CP(=O)(c3ccccc3)c3ccccc3)cc1Cc1cc(NC(=O)CP(=O)(c3ccccc3)c3ccccc3)cc(c1OCCCCCCCCCCCCCCCCCC)Cc1cc(NC(=O)CP(=O)(c3ccccc3)c3ccccc3)cc(c1OCCCCCCCCCCCCCCCCCC)Cc1cc(NC(=O)CP(=O)(c3ccccc3)c3ccccc3)cc(c1OCCCCCCCCCCCCCCCCCC)C2 [Compound 5] | – | – | – | – | – | – | – | – | – | – | – | – | – | D(distribution coefficient) 237-Np [2, 9]: 1.5; D(distribution coefficient) 239-Pu [2, 9]: 24; D(distribution coefficient) 241-Am [2, 9]: 21
7 | CCCCCCCCCCCCOc1c2cc(NC(=O)CP(=O)(c3ccccc3)c3ccccc3)cc1Cc1cc(NC(=O)CP(=O)(c3ccccc3)c3ccccc3)cc(c1OCCCCCCCCCCCC)Cc1cc(NC(=O)CP(=O)(c3ccccc3)c3ccccc3)cc(c1OCCCCCCCCCCCC)Cc1cc(NC(=O)CP(=O)(c3ccccc3)c3ccccc3)cc(c1OCCCCCCCCCCCC)C2 [Compound 1, 25, 26, 27, 28 tetradodecyloxy-tetra-5, 11, 17, 23-(diphenylphosphinoxidoacetamido) calix[4]arene] | 56% | 84% | 97% | 85% | 66% | 100% | 1.35 cm/h | 3.4 cm/h | 4.9 cm/h | – | 4 | > 100 | > 100 | Percentage transported in 6 h. 152 Eu [1, 3]: 95%; Percentage transported in 24 h. 152 Eu [1, 4]: 100%; Permeability (cm/h) 152 Eu [1, 5]: 2.75 cm/h
8 | CCCCCCCCP(=O)(CC(=O)N(CC(C)C)CC(C)C)c1ccccc1 (centres unmarked) [CMPO, reference compound] | 50% | 99% | 9.8% | 100% | 68% | 45% | 0.74 cm/h | 3.44 cm/h | 0.17 cm/h | – | – | – | – | D(distribution coefficient) 237-Np [2, 10]: 0.85; D(distribution coefficient) 239-Pu [2, 10]: 22; D(distribution coefficient) 241-Am [2, 10]: 1.2
